Experimental data taken from patent US20220168296A1, “METHODS OF TREATING CANCER WITH FARNESYLTRANSFERASE INHIBITORS” (Kura Oncology, Inc., priority 2019, published 2022).

Assays:
Type in all cases: in vivo, human
Hodgkin Lymphoma (HL) = assay: Phase II clinical study with tipifarnib in relapsed or refractory lymphoma patients: HL subjects; details: among 6 HL patients with pre-treatment tumor samples; 300 mg orally bid days 1-21 of 28 day cycles
Description: A Phase II clinical study with tipifarnib was performed in relapsed or refractory non-Hodgkin's lymphoma patients (N=93), wherein the types of non-Hodgkin's lymphoma included Diffuse Large B Cell Lymphoma (DLBCL) and Mycosis Fungoides (MF). Eligible patients received 300 mg tipifarnib as a single agent orally, twice a day (bid) on days 1-21 of 28 day cycles. Courses were repeated every 28 days in the absence of disease progression or unacceptable toxicity. Primary objective of assessing objective tumor response, in terms of Objective Response Rate (ORR), was determined using the International Workshop Criteria (IWC). […]

Mycosis Fungoides (MF) = assay: Phase II clinical study with tipifarnib in relapsed or refractory non-Hodgkin's lymphoma patients: MF subjects
Description: A Phase II clinical study with tipifarnib was performed in relapsed or refractory non-Hodgkin's lymphoma patients (N=93), wherein the types of non-Hodgkin's lymphoma included Diffuse Large B Cell Lymphoma (DLBCL) and Mycosis Fungoides (MF). Eligible patients received 300 mg tipifarnib as a single agent orally, twice a day (bid) on days 1-21 of 28 day cycles. Courses were repeated every 28 days in the absence of disease progression or unacceptable toxicity. Primary objective of assessing objective tumor response, in terms of Objective Response Rate (ORR), was determined using the International Workshop Criteria (IWC). […] CXCL12, CXCR4, CXCR7, and […]2, mRNA expression data were generated by RNASeq and expressed as RNA Seq RSEM.

[1] = tested on: relapsed or refractory Diffuse Large B Cell Lymphoma (DLBCL); assay: Phase II clinical study with tipifarnib in relapsed or refractory non-Hodgkin's lymphoma patients: DLBCL subjects; parameters: key to Best Response: a partial response (PR); Stable disease (SD) can be defined as any response not meeting CR, PR, HI, or PD criteria; Progressive disease (PD) can be defined as either >50% increase in lymph node or circulating blast % from baseline, or new appearance of circulating blasts (on at least 2 consecutive occasions)
Description: A Phase II clinical study with tipifarnib was performed in relapsed or refractory non-Hodgkin's lymphoma patients (N=93), wherein the types of non-Hodgkin's lymphoma included Diffuse Large B Cell Lymphoma (DLBCL) and Mycosis Fungoides (MF). Eligible patients received 300 mg tipifarnib as a single agent orally, twice a day (bid) on days 1-21 of 28 day cycles. Courses were repeated every 28 days in the absence of disease progression or unacceptable toxicity. Primary objective of assessing objective tumor response, in terms of Objective Response Rate (ORR), was determined using the International Workshop Criteria (IWC).
Exclusion Criteria for this clinical study include: (a) pregnant women; (b) breastfeeding women; (c) men or women of childbearing potential or their sexual partners who are unwilling to employ adequate contraception (condoms, diaphragm, birth control pills, injections, intrauterine device [IUD], surgical sterilization, subcutaneous implants, or abstinence, etc.); (d) life-threatening illness (unrelated to tumor); (e) ongoing radiation therapy or radiation therapy ≤3 weeks prior to study registration unless the acute side effects associated with such therapy are resolved; (f) therapy with myelosuppressive chemotherapy, cytotoxic chemotherapy, or biologic therapy ≤3 weeks (6 weeks for nitrosourea or mitomycin C) or corticosteroids ≤2 weeks, prior to starting R11577; patients may be on corticosteroids or tapering off them up until the day they start R11577 as long as it is clear that they are not having a tumor response to the steroids or that the steroids would confuse the interpretation of response to R11577; patients may be receiving stable (not increased within the last month) chronic doses of corticosteroids with a maximum dose of 20 mg of prednisone per day if they are being given for disorders other than lymphoma such as rheumatoid arthritis, polymyalgia rheumatica, adrenal insufficiency, or intractable symptoms of lymphoma; (g) peripheral neuropathy ≥grade 3; (h) serious non-malignant disease such as active infection or other condition which in the opinion of the investigator would compromise other protocol objectives; (i) presence of central nervous system (CNS) lymphoma; (j) other active malignancies; (k) once a patient begins FTI (tipifarnib) treatment, the addition of other cancer treatment will confound the assessment of efficacy and therefore is not allowed; this restriction precludes the addition of cytotoxic, immunologic agents, radiotherapy, or an increase in corticosteroid dose while the patient is in the treatment phase of this protocol; (l) known to be human immunodeficiency virus (HIV) positive; HIV testing is not required but should be done if clinically indicated; HIV patients are excluded because of concerns regarding excess risk of complications of immunosuppressive therapy regimens; and (m) known allergy to imidazole drugs such as clotrimazole, ketoconazole, miconazole, econazole, fenticonazole, sulconazole, tioconazole, or terconazole.
Pre-treatment tumor samples and best response data were obtained from 20 patients (N=20): 6 Diffuse Large B Cell Lymphoma (DLBCL), 6 Hodgkin Lymphoma (HL), 4 Follicular Lymphoma (FL), 1 Marginal Zone B Cell Lymphoma, 1 PTCL NOS, and 2 Mycosis Fungoides (MF). Within these 20 patients, the following objective responses were identified: 3 PRs and 1 SD were reported in DLBCL, 1PR in HL, and 2PRs in MF.
CXCL12, CXCR4, CXCR7, and PRICLKE2, mRNA expression data were generated by RNASeq and expressed as RNA Seq RSEM.

[2] = among 6 DLBCL patients with pre-treatment tumor samples, 300 mg orally bid days 1-21 of 28 day cycles
[3] = high PRICKLE2 and CXCL12/CXCR4 ratio greater than about 1/10 (about 0.10), out of 6 subjects (FIG. 2B)
[4] = low PRICKLE2 and lower CXCL12/CXCR4 ratio, cut-off about 1/10 (about 0.10), out of 6 subjects (FIG. 2B)
[5] = low PRICKLE2 and lower CXCL12/CXCR4 ratio, cut-off about 3/20 (about 0.15), out of 6 subjects (FIG. 2B)
[6] = low pre-treatment CXCL12 expression levels, out of 6 subjects (FIG. 1A)
[7] = low pre-treatment PRICKLE2 expression levels, out of 6 subjects (FIG. 2A)

SMILES: Cn1cncc1[C@@](N)(c1ccc(Cl)cc1)c1ccc2c(c1)c(-c1cccc(Cl)c1)cc(=O)n2C [tipifarnib]
- Number of PR (objective responses) (Hodgkin Lymphoma (HL)): 1
- Number of PR responses (Mycosis Fungoides (MF); MF patients having high pre-treatment CXCL12 expression levels, out of 2 subjects): 2
- Number of PR responses (Mycosis Fungoides (MF); MF, low pre-treatment CXCL12 expression levels, out of 2 subjects): 0
- Number of PRs (objective responses) (Mycosis Fungoides (MF); among 2 MF patients with pre-treatment tumor samples, 300 mg orally bid days 1-21 of 28 day cycles): 2
- Number of PRs (Mycosis Fungoides (MF); two MF subjects with CXCL12/CXCR4 expression ratio of 0.6 and 2.0, out of 2 subjects): 2
- Best Response ([1]; DLBCL subject with pre-treatment tumor CXCL12/CXCR7 ratio 1.4, 300 mg orally bid days 1-21 of 28 day cycles): PD
- Best Response ([1]; DLBCL subject with pre-treatment tumor CXCL12/CXCR7 ratio 3.5, 300 mg orally bid days 1-21 of 28 day cycles): PD
- Best Response ([1]; DLBCL subject with pre-treatment tumor CXCL12/CXCR7 ratio 3.7, 300 mg orally bid days 1-21 of 28 day cycles): SD
- Best Response ([1]; DLBCL subject with pre-treatment tumor CXCL12/CXCR7 ratio 6.6, 300 mg orally bid days 1-21 of 28 day cycles): PR
- Best Response ([1]; DLBCL subject with pre-treatment tumor CXCL12/CXCR7 ratio 30.8, 300 mg orally bid days 1-21 of 28 day cycles): PR
- Best Response ([1]; DLBCL subject with pre-treatment tumor CXCL12/CXCR7 ratio 66.8, 300 mg orally bid days 1-21 of 28 day cycles): PR
- Best Response ([1]; Patient 35, DLBCL, pre-treatment tumor CXCL12/CXCR4 ratio 1.280, 300 mg orally bid days 1-21 of 28 day cycles): PR
- Best Response ([1]; Patient 38, DLBCL, pre-treatment tumor CXCL12/CXCR4 ratio 0.505, 300 mg orally bid days 1-21 of 28 day cycles): PR
- Best Response ([1]; Patient 39, DLBCL, pre-treatment tumor CXCL12/CXCR4 ratio 0.179, 300 mg orally bid days 1-21 of 28 day cycles): PR
- Best Response ([1]; Patient 42, DLBCL, pre-treatment tumor CXCL12/CXCR4 ratio 0.122, 300 mg orally bid days 1-21 of 28 day cycles): SD
- Best Response ([1]; Patient 43, DLBCL, pre-treatment tumor CXCL12/CXCR4 ratio 0.050, 300 mg orally bid days 1-21 of 28 day cycles): PD
- Best Response ([1]; Patient 44, DLBCL, pre-treatment tumor CXCL12/CXCR4 ratio 0.012, 300 mg orally bid days 1-21 of 28 day cycles): PD
- Number of PRs (objective responses) [1, 2]: 3
- Number of SD (objective responses) [1, 2]: 1
- Number of PR responses [1, 3]: 3
- Number of SD responses [1, 3]: 1
- Number of PR responses ([1]; high PRICKLE2 and CXCL12/CXCR4 ratio greater than about 3/20 (about 0.15), out of 6 subjects (FIG. 2B)): 3
- Number of PR responses ([1]; high pre-treatment CXCL12 expression levels, out of 6 subjects (FIG. 1A)): 3
- Number of PR responses ([1]; high pre-treatment PRICKLE2 expression levels, out of 6 subjects (FIG. 2A)): 3
- Number of PD responses [1, 4]: 2
- Number of PR responses [1, 4]: 0
- Number of SD responses [1, 4]: 0
- Number of PD responses [1, 5]: 2
- Number of PR responses [1, 5]: 0
- Number of SD responses [1, 5]: 1
- Number of PD responses [1, 6]: 2
- Number of PR responses [1, 6]: 0
- Number of SD responses [1, 6]: 1
- Number of PD responses [1, 7]: 2
- Number of PR responses [1, 7]: 0
- Number of SD responses [1, 7]: 1
